Results: US10597388B2, “Pyridazinone herbicides” (FMC CORPORATION, priority 2014, dated 2020)

Legend:
Experiment in all cases: Test C greenhouse herbicide test, pre- and postemergence
Assay type in all cases: in vivo
[1] = test system: lambsquarters (Chenopodium album)
Method in brief: (§1)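 Seeds sown in loam–sand blend treated preemergence; plants in peat-based medium sprayed postemergence at 2–18 cm (1- to 4-leaf stage); chemicals in non-phytotoxic solvent with surfactant. Greenhouse 13–15 d, then visual rating versus controls on 0–100 scale (0 no effect, 100 complete control).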

[2] = test system: barnyardgrass (Echinochloa crus-galli)
Method in brief: as §1

[3] = test system: foxtail, giant (giant foxtail, Setaria faberii)
Method in brief: as §1

[4] = test system: oilseed rape (Brassica napus)
Method in brief: as §1

corn (Zea mays) = test system: corn (Zea mays)
Method in brief: as §1

[5] = test system: morningglory (Ipomoea coccinea)
Method in brief: as §1

[6] = test system: galium (catchweed bedstraw, Galium aparine)
Method in brief: as §1

[7] = test system: velvetleaf (Abutilon theophrasti)
Method in brief: as §1

[8] = test system: wheat (winter wheat, Triticum aestivum)
Method in brief: as §1

[9] = test system: crabgrass, large (large crabgrass, Digitaria sanguinalis)
Method in brief: as §1

[10] = test system: ragweed (common ragweed, Ambrosia elatior)
Method in brief: as §1

[11] = test system: pigweed (Amaranthus retroflexus)
Method in brief: as §1

[12] = test system: ryegrass, Italian (Italian ryegrass, Lolium multiflorum)
Method in brief: as §1

[13] = test system: waterhemp (common waterhemp, Amaranthus rudis)
Method in brief: as §1

[14] = test system: blackgrass (Alopecurus myosuroides)
Method in brief: as §1

[15] = 4 g ai/ha, preemergence, visual rating, scale 0 to 100 (0 no effect, 100 complete control), 13 to 15 d
[16] = Postemergence, 8 g ai/ha, scale 0 to 100 (0 no effect, 100 complete control)
[17] = Postemergence, 16 g ai/ha, scale 0 to 100 (0 no effect, 100 complete control)
[18] = Postemergence, 31 g ai/ha, scale 0 to 100 (0 no effect, 100 complete control)
[19] = Preemergence, 16 g ai/ha, scale 0 to 100, 0 is no effect, 100 is complete control
[20] = Preemergence, 31 g ai/ha, scale 0 to 100, 0 is no effect, 100 is complete control
[21] = Postemergence, 4 g ai/ha, scale 0 to 100 (0 no effect, 100 complete control)
[22] = Preemergence, 8 g ai/ha, scale 0 to 100, 0 is no effect, 100 is complete control

Cc1ccc2ccc(Cl)cc2c1-c1c(O)c(C)nn(C)c1=O [Compound 144]
Plant response rating, Lambsquarters [1, 15]: 25 | Lambsquarters plant response rating [1, 16]: 80 | Plant response rating, Lambsquarters [1, 16]: 90 | Plant response rating, Lambsquarters [1, 17]: 90 | Plant response rating, Lambsquarters [1, 18]: 90 | Plant response rating, Lambsquarters [1, 19]: 65 | Plant response rating, Lambsquarters [1, 20]: 100 | Plant response rating, Barnyardgrass [2, 15]: 0 | Plant response rating, Barnyardgrass [2, 21]: 15 | Plant response rating, Barnyardgrass [2, 16]: 25 | Plant response rating, Barnyardgrass [2, 17]: 35 | Plant response rating, Barnyardgrass [2, 18]: 65 | Plant response rating, Barnyardgrass [2, 22]: 0 | Plant response rating, Barnyardgrass [2, 19]: 5 | Plant response rating, Barnyardgrass [2, 20]: 35 | Plant response rating, Foxtail, Giant [3, 15]: 30 | Foxtail, Giant plant response rating [3, 16]: 45 | Plant response rating, Foxtail, Giant [3, 16]: 50 | Plant response rating, Foxtail, Giant [3, 17]: 60 | Plant response rating, Foxtail, Giant [3, 18]: 70 | Plant response rating, Foxtail, Giant [3, 22]: 60 | Plant response rating, Foxtail, Giant [3, 19]: 75 | Plant response rating, Foxtail, Giant [3, 20]: 90 | Plant response rating, Oilseed Rape [4, 15]: 0 | Oilseed Rape plant response rating [4, 16]: 85 | Plant response rating, Oilseed Rape [4, 16]: 95 | Plant response rating, Oilseed Rape [4, 17]: 95 | Plant response rating, Oilseed Rape [4, 18]: 95 | Plant response rating, Oilseed Rape [4, 19]: 5 | Plant response rating, Oilseed Rape [4, 20]: 70 | Plant response rating, Corn (corn (Zea mays); [15]): 0 | Plant response rating, Corn (corn (Zea mays); [21]): 0 | Plant response rating, Corn (corn (Zea mays); [16]): 0 | Plant response rating, Corn (corn (Zea mays); [17]): 5 | Plant response rating, Corn (corn (Zea mays); [18]): 30 | Plant response rating, Corn (corn (Zea mays); [22]): 0 | Plant response rating, Corn (corn (Zea mays); [19]): 0 | Plant response rating, Corn (corn (Zea mays); [20]): 0 | Plant response rating, Morningglory [5, 15]: 25 | Morningglory plant response rating [5, 16]: 90 | Plant response rating, Morningglory [5, 16]: 95 | Plant response rating, Morningglory [5, 17]: 98 | Plant response rating, Morningglory [5, 18]: 98 | Plant response rating, Morningglory [5, 19]: 80 | Plant response rating, Morningglory [5, 20]: 90 | Plant response rating, Galium [6, 15]: 90 | Galium plant response rating [6, 16]: 80 | Plant response rating, Galium [6, 16]: 90 | Plant response rating, Galium [6, 17]: 90 | Plant response rating, Galium [6, 18]: 95 | Plant response rating, Galium [6, 19]: 95 | Plant response rating, Galium [6, 20]: 100 | Plant response rating, Velvetleaf [7, 15]: 25 | Plant response rating, Velvetleaf [7, 16]: 70 | Velvetleaf plant response rating [7, 16]: 50 | Plant response rating, Velvetleaf [7, 17]: 90 | Plant response rating, Velvetleaf [7, 18]: 85 | Plant response rating, Velvetleaf [7, 19]: 85 | Plant response rating, Velvetleaf [7, 20]: 90 | Plant response rating, Wheat [8, 15]: 0 | Plant response rating, Wheat [8, 16]: 90 | Wheat plant response rating [8, 16]: 90 | Plant response rating, Wheat [8, 17]: 95 | Plant response rating, Wheat [8, 18]: 95 | Plant response rating, Wheat [8, 19]: 70 | Plant response rating, Wheat [8, 20]: 90 | Plant response rating, Crabgrass, Large [9, 15]: 0 | Crabgrass, Large plant response rating [9, 16]: 20 | Plant response rating, Crabgrass, Large [9, 16]: 20 | Plant response rating, Crabgrass, Large [9, 17]: 25 | Plant response rating, Crabgrass, Large [9, 18]: 30 | Plant response rating, Crabgrass, Large [9, 22]: 5 | Plant response rating, Crabgrass, Large [9, 19]: 25 | Plant response rating, Crabgrass, Large [9, 20]: 60 | Plant response rating, Ragweed [10, 15]: 70 | Plant response rating, Ragweed [10, 16]: 10 | Ragweed plant response rating [10, 16]: 10 | Plant response rating, Ragweed [10, 17]: 35 | Plant response rating, Ragweed [10, 18]: 35 | Plant response rating, Ragweed [10, 19]: 95 | Plant response rating, Ragweed [10, 20]: 98 | Plant response rating, Pigweed [11, 15]: 75 | Pigweed plant response rating [11, 16]: 80 | Plant response rating, Pigweed [11, 16]: 85 | Plant response rating, Pigweed [11, 17]: 85 | Plant response rating, Pigweed [11, 18]: 90 | Plant response rating, Pigweed [11, 19]: 100 | Plant response rating, Pigweed [11, 20]: 100 | Plant response rating, Ryegrass, Italian [12, 15]: 80 | Plant response rating, Ryegrass, Italian [12, 16]: 35 | Ryegrass, Italian plant response rating [12, 16]: 20 | Plant response rating, Ryegrass, Italian [12, 17]: 45 | Plant response rating, Ryegrass, Italian [12, 18]: 70 | Plant response rating, Ryegrass, Italian [12, 19]: 100 | Plant response rating, Ryegrass, Italian [12, 20]: 100 | Plant response rating, Waterhemp [13, 15]: 80 | Plant response rating, Waterhemp [13, 16]: 90 | Waterhemp plant response rating [13, 16]: 90 | Plant response rating, Waterhemp [13, 17]: 90 | Plant response rating, Waterhemp [13, 18]: 95 | Plant response rating, Waterhemp [13, 19]: 100 | Plant response rating, Waterhemp [13, 20]: 100 | Plant response rating, Blackgrass [14, 15]: 30 | Plant response rating, Blackgrass [14, 21]: 30 | Plant response rating, Blackgrass [14, 16]: 30 | Plant response rating, Blackgrass [14, 17]: 20 | Plant response rating, Blackgrass [14, 18]: 35 | Plant response rating, Blackgrass [14, 22]: 55 | Plant response rating, Blackgrass [14, 19]: 70 | Plant response rating, Blackgrass [14, 20]: 90
